Data: patent US5252559A, “His-Gly-Gly peptide and derivatives thereof for hair growth” (The Procter & Gamble Company, priority 1991, dated 1993)
Peptide text beside a SMILES is read from it.

System: male C3H mice
Assay: C3H Mouse Model, topical study of hair growth
Assay type: in vivo
Experimental: The effect of the compounds of the present invention on hair growth is assessed using male C3H mice (Harlan Sprague Dawley, Inc., Indianapolis, Ind.) as an animal model. The mice are 52 days old at the time of first does. They are individually housed in "shoe box" cages (Scientific Products, Chicago, Ill.). Ten mice are used per test group.
Not more than four hours before treatment, the animals are anesthetized with an intraperitoneal mixture of acepromazine maleate (1.6 mg/kg), xylazine (4.8 mg/kg) and ketamine hydrochloride (64 mg/kg) dosed in a saline vehicle in a total volume of 0.2 ml per 25 g mouse. The entire back of the animal is clipped closely with a small animal clipper (Wahl model 8900, Wahl Clipper Corp., Sterling, Ill.). […]
On days of photography, the animals are photographed prior to dosing. […] Results are expressed as the percent of shaved area responding with anagen skin, and the percent of shaved area responding with hair growth.
A positive response, i.e., an increase of greater than 10% over control, indicates the potential of the test compound to regulate hair growth. Accordingly, when hair growth peptides as herein defined, are assessed either individually or in combination as a test compound in the C3H Mouse Model, an increase over control of at least 10%, preferably 40%, more preferably 70%, after four weeks treatment will be obtained. […]

N[C@@H](Cc1c[nH]cn1)C(=O)NCC(=O)NCC(=O)O [His-Gly-Gly, Histidyl-glycyl-glycine] (H-His-Gly-Gly-OH)
mean percent of shaved area that is covered with hair at Day 25 (topical, 1.0% in Tris buffer/propylene glycol/glycerine (67/30/3, pH 8.0) vehicle, after 4 weeks of treatment, mean of 10 mice): 44.3% | increase in hair growth (versus vehicle control, Day 25, topical 1.0%): 96%
